US7420059B2, “HMG-CoA reductase inhibitors and method” (Bristol-Myers Squibb Company, priority 2003, dated 2008)

Compound `CC(C)c1nc2c(c(-c3ccc(F)cc3)c1/C=C/[C@@H](O)C[C@@H](O)CC(=O)O)CCCN2S(C)(=O)=O` [Example 22, (E)-(3R,5S)-7-[4-(4-Fluorophenyl)-2-isopropyl-8-methanesulfonyl-5,6,7,8-tetrahydro-[1,8]naphthyridin-3-yl]-3,5-dihydroxyhept-6-enoic Acid] has a melting point of 184 to 186 °C.
